Paper PMC11249953, “c-KIT inhibitors reduce pathology and improve behavior in the Tg(SwDI) model of Alzheimer’s disease” (Life Science Alliance, 2024)

Assays:
ULK3 = target: T1, ULK3 (Homo sapiens, UniProt Q6PHR2); assay: KINOMEscan competition binding, ULK3; conditions: 10 µM compound; for remaining binding at 10 µM: lower = stronger binding, read-out: ULK3 %Ctrl @ 10000nM (POC)
T1 construct: DNA label for qPCR read-out (T7 phage fusion or DNA tag); purchased Eurofins DiscoverX Corporation; host or cells: T7 phage in E. coli (BL21-derived) or HEK-293
T1 sequence (Q6PHR2 1-472): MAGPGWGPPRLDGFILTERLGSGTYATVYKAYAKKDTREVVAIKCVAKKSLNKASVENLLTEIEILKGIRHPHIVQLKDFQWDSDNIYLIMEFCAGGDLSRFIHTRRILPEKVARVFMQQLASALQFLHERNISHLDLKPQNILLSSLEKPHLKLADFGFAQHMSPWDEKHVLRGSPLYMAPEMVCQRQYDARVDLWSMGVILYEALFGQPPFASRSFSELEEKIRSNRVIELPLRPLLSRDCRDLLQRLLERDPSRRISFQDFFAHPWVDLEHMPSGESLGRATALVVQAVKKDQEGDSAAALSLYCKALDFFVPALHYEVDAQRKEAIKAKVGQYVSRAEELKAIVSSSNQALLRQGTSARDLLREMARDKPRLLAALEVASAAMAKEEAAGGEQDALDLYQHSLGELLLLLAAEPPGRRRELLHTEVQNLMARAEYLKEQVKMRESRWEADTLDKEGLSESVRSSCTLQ
Method: The KINOMEscan screening platform (Eurofins DiscoverX Corporation) was performed using active site-directed competition binding assay to quantitatively measure interactions between BK40143 and BK40197 and more than 450 human kinases and disease relevant mutant variants. […] Screening “hits” are identified by measuring the amount of kinase captured in test (BK40143 and BK40197) versus control samples by using a quantitative and ultra-sensitive qRT-PCR method that detects the associated DNA label. BK40143 and BK40197 were screened at 10 µM concentration, and results for primary screen binding interactions were reported as “% Ctrl” (POC), where lower numbers indicate stronger hits and calculated as follows: [test compound signal−positive control signal/negative control signal−positive control signal]×100
negative control = DMSO (100% Ctrl)
positive control = control compound (0% Ctrl)
Based on screening data from of profiled compounds, a proportional relationship between primary screening results and corresponding compound/target affinities can be described as binding constants (Kd values) for the indicated ranges of POC values with tighter binding (higher affinity) interactions associated with lower POC values and weaker binding (lower affinity) associated with higher POC values. Briefly, kinase-tagged T7 phage strains were grown in parallel in 24-well blocks in an E. coli host derived from the BL21 strain. E. coli were grown to log-phase and infected with T7 phage from a frozen stock (multiplicity of infection = 0.4) and incubated with shaking at 32°C until lysis (90–150 min). The lysates were centrifuged (6,000g) and filtered (0.2 μm) to remove cell debris. The remaining kinases were produced in HEK-293 cells and subsequently tagged with DNA for qRT-PCR detection. Streptavidin-coated magnetic beads were treated with biotinylated small molecule ligands for 30 min at RT to generate affinity resins for kinase assays. The liganded beads were blocked with excess biotin and washed with blocking buffer (1% BSA, 0.05% Tween 20, 1 mM DTT; SeaBlock [Pierce]) to remove unbound ligand and to reduce non-specific phage binding. Binding reactions were assembled by combining kinases, liganded affinity beads, and test compounds in 1x binding buffer (20% 0.17x PBS, 0.05% Tween 20, 6 mM DTT; SeaBlock). Test compounds were prepared as 100x stocks in 100% DMSO and directly diluted into the assay. All reactions were performed in polypropylene 384-well plates in a final volume of 0.02 ml. The assay plates were incubated at RT with shaking for 1 h and the affinity beads were washed with wash buffer (1x PBS, 0.05% Tween 20). […] The kinase concentration in the eluates was measured by qRT-PCR.

phospho-c-KIT = assay: Western blot for phospho-c-KIT in brain lysates; format: in vivo, mouse; conditions: TgAPP mice; BK40143 5 mg/kg, BK40197 45 mg/kg; vs DMSO
From the text: c-KIT is responsible for mast cell development and homeostasis ([Lake et al, 1978]; [Linnekin, 1999]; [Kitamura et al, 2006]). TKs are the central driving force for processes leading to mast cell activation ([Parravicini et al, 2002]; [Gomez et al, 2005]). Multiple receptors are capable of mediating or modifying mast cell activation ([Kraft & Kinet, 2007]; [Kuehn & Gilfillan, 2007]), the major receptor responsible being FcεRI, the high affinity receptor for immunoglobulin E (IgE) ([Rivera & Gilfillan, 2006]). Mast cells are tissue-resident cells of hematopoietic lineage which are derived from CD13^+CD34^+KIT(CD117)^+ bone marrow pluripotent progenitors ([Kirshenbaum et al, 1999]). Although mast cells play an important role in the innate immune system ([Marshall, 2004]; [Galli et al, 2005]), these cells are also responsible for the detrimental exaggerated reactions to antigen ([Galli et al, 2008]) that follow the release of potent inflammatory mediators as a consequence of receptor-mediated mast cell activation ([Metcalfe et al, 1997]). The progression of these cells to fully mature mast cells is dependent on c-KIT activation which occurs because of stem cell factor-induced c-KIT dimerization and auto-phosphorylation ([Kirshenbaum et al, 1999]). […]
Brain hemispheres from treated and untreated animals were lysed in 1x STEN buffer and protein concentrations were measured via BCA assay. […]

| SMILES | inhibition at 10 µM (ULK3) [%] | remaining binding at 10 µM (ULK3) [%] | phospho-c-KIT levels in brain (Western blot) (phospho-c-KIT) |
| --- | --- | --- | --- |
| Cc1cccc(-c2cc3nccc(N4CCOCC4)c3s2)c1 [BK40197] | 93.9 | 6.1 | similar, albeit not statistically significant, trend |
| Cc1cccc(-c2cc3nccc(Nc4ccccc4)c3s2)c1 [BK40143] | 90.2 | 9.8 | significant decrease in phospho-c-KIT levels |
